According to PubChem BioAssay AID326 (DTP/NCI, 2004):
Values joined by “and” are separate entries in the source; they are usually repeats but may differ in a detail not shown here. Equal values may be shown once. Toxic doses and inconclusive results are not listed. Rule for the calls: active = survival T/C of 150% or more; inactive = T/C below 125% in these data.

Test system: CD2F1 mice, P388/DHAQ leukemia ip, median survival T/C
Assay: NCI In Vivo Anticancer Drug Screen. Data for tumor model P388 Leukemia resistant to Dihydroxy Anthracenedione; NSC 299195 (intraperitoneal) in CD2F1 (CDF1) mice
Settings: endpoint: median survival time, schedule: Q04DX003 (ip), vehicle: Klucel (hydroxypropylcellulose) (HPC), higher = longer survival
Method: The antitumor activity of compounds was measured in mice bearing transplantable tumors. Survival or tumor size were measured and the results are expressed as the measurement made in the treated group (T) divided by the measurement made in the vehicle treated control group (C). The tumor model used in this assay is P388 Leukemia resistant to Dihydroxy Anthracenedione; NSC 299195 (intraperitoneal) in CD2F1 (CDF1) mice

Measured: T/C

O=C(Nc1ccc(C2=NCCCN2)cc1)c1ccc(C(=O)Nc2ccc(C3=NCCCN3)cc2)cc1
inactive: dose: 4.32 mg/kg/injection 110 % of control | dose: 6.48 mg/kg/injection 106 % of control | dose: 7.2 mg/kg/injection 110 % of control | dose: 10.8 mg/kg/injection 110 % of control and 119 % of control | dose: 12.0 mg/kg/injection 112 % of control | dose: 18.0 mg/kg/injection 107 % of control and 121 % of control | dose: 20.0 mg/kg/injection 111 % of control | dose: 30.0 mg/kg/injection 100 % of control | dose: 50.0 mg/kg/injection 107 % of control
